Test results reported in patent US20250215030A1, “STAT MODULATORS AND USES THEREOF” (Recludix Pharma, Inc., priority 2022, published 2025).

Each compound was assayed against T1, pSTAT3 (pY705-STAT3) (Homo sapiens, UniProt P40763) (assay: MSD-pSTAT-PBMC Assay (pSTAT3, IL-6 stimulated)). Details: not given.
T1 construct: host or cells: cryopreserved PBMC
Format: cell-based
Method in brief: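 Human PBMCs (50,000 cells/well for STAT3, 25,000 for STAT6) treated with compound 3 h, then stimulated 10 min with 10 ng/mL IL-6 or 1 ng/mL IL-4. Lysate pSTAT3 (pY705) or pSTAT6 (pY641) measured by MSD sandwich electrochemiluminescence. Signal minus unstimulated, normalized to DMSO; IC50 by variable-slope nonlinear regression.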

T1 sequence (P40763 whole entry): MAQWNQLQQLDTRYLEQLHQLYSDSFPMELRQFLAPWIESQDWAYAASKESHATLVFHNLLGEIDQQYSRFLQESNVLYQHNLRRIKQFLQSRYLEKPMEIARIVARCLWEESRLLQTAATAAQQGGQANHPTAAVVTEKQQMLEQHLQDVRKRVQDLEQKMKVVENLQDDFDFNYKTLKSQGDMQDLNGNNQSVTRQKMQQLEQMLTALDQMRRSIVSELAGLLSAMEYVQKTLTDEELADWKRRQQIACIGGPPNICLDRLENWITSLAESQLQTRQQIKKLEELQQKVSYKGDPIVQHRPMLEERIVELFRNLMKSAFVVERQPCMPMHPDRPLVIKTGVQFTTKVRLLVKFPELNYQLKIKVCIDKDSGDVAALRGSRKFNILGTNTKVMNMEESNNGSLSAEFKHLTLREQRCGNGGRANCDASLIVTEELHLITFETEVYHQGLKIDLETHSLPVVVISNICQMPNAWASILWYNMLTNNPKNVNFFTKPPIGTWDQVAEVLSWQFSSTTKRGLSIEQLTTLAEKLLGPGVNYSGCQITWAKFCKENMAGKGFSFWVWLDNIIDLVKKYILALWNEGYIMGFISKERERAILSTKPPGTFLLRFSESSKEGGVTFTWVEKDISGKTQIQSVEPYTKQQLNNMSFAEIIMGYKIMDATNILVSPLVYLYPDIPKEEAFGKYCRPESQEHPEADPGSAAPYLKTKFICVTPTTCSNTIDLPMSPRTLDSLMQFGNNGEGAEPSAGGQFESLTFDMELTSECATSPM

First: CCCOC(=O)[C@H](C)NP(=O)(Oc1ccccc1)C(F)c1ccc2sc(C(=O)N[C@H]3C[C@@H]4C[C@@H]4C[C@H]4CC[C@@H](C(=O)N5CC(c6cnccc6OCC)C5)N4C3=O)cc2c1 (stereo partly drawn) [Compound 423, propyl(((S)-(2-(((3S,6S,7aS,8aR,9aR)-3-(3-(4-ethoxypyridin-3-yl)azetidine-1-carbonyl)-5-oxodecahydro-1H-cyclopropa[d]pyrrolo[1,2-a]azocin-6-yl)carbamoyl)benzo[b]thiophen-5-yl)fluoromethyl)(phenoxy)phosphoryl)-L-alaninate]
Second: CCCOC(=O)[C@H](C)NP(=O)(Oc1ccccc1)C(F)c1ccc2sc(C(=O)N[C@H]3C[C@@H]4C[C@@H]4C[C@H]4CC[C@@H](C(=O)N5CC(c6cnccc6N6CCN(C)CC6)C5)N4C3=O)cc2c1 (stereo partly drawn) [Compound 424, propyl(((R)-fluoro(2-(((3S,6S,7aS,8aR,9aR)-3-(3-(4-(4-methylpiperazin-1-yl)pyridin-3-yl)azetidine-1-carbonyl)-5-oxodecahydro-1H-cyclopropa[d]pyrrolo[1,2-a]azocin-6-yl)carbamoyl)benzo[b]thiophen-5-yl)methyl)(phenoxy)phosphoryl)-L-alaninate]
The IC50 of the first is lower: under 100 nM for the first, 100 to 1000 nM for the second. The first is the more potent here.

First: CCCOC(=O)[C@H](C)N[P@@](=O)(Oc1ccccc1)[C@@H](F)c1ccc2sc(C(=O)N[C@H]3C[C@@H]4C[C@@H]4C[C@H]4CC[C@@H](C(=O)N5C[C@H](c6cnccc6N(C)C)CC56CC6)N4C3=O)cc2c1 (single isomer, unassigned) [Compound 434]
Second: CCCOC(=O)[C@H](C)NP(=O)(Oc1ccccc1)C(F)c1ccc2sc(C(=O)N[C@H]3C[C@@H]4C[C@@H]4C[C@H]4CC[C@@H](C(=O)N[C@H]5CN(C(N)=O)C[C@@H]5F)N4C3=O)cc2c1 (stereo partly drawn) [Compound 382, propyl(((2-(((3S,6S,7aS,8aR,9aR)-3-(((3S,4S)-1-carbamoyl-4-fluoropyrrolidin-3-yl)carbamoyl)-5-oxodecahydro-1H-cyclopropa[d]pyrrolo[1,2-a]azocin-6-yl)carbamoyl)benzo[b]thiophen-5-yl)fluoromethyl)(phenoxy)phosphoryl)-L-alaninate]
The IC50 of the first is lower: under 100 nM for the first, 100 to 1000 nM for the second.

`CCCOC(=O)[C@H](C)NP(=O)(Cc1ccc2sc(C(=O)N[C@H]3C[C@H]4C[C@H]4CC4CC[C@@H](C(=O)N[C@H]5CN(C(C)=O)C[C@@H]5F)N4C3=O)cc2c1)Oc1ccccc1` (stereo partly drawn) [Compound 245, propyl(((2-(((3S,6S,7aR,8aS,9aR)-3-(((3S,4S)-1-acetyl-4-fluoropyrrolidin-3-yl)carbamoyl)-5-oxodecahydro-1H-cyclopropa[d]pyrrolo[1,2-a]azocin-6-yl)carbamoyl)benzo[b]thiophen-5-yl)methyl)(phenoxy)phosphoryl)-L-alaninate] showed an IC50 of 1000 to 3000 nM.

Same assay, conditions: PBMC, compound 3 hrs, then 10 ng/mL IL-6 for 10 min; MSD pY705-STAT3; read-out: pSTAT3

Compared with `CCCOC(=O)[C@H](C)N[P@@](=O)(Oc1ccccc1)[C@@H](F)c1ccc2sc(C(=O)N[C@H]3C[C@@H]4C[C@@H]4C[C@H]4CC[C@@H](C(=O)N5CC(c6cnccc6N(C)C)C5)N4C3=O)cc2c1` [Compound 414, propyl((S)-((R)-(2-(((3S,6S,7aS,8aR,9aR)-3-(3-(4-(dimethylamino)pyridin-3-yl)azetidine-1-carbnyl)-5-oxodecahydro-1H-cyclopropa[d]pyrrolo[1,2-a]azocin-6-yl)carbamoyl)benzo[b]thiophen-5-yl)fluoromethyl)(phenoxy)phosphoryl)-L-alaninate], `CC(C)OC(=O)COP(=O)(Oc1ccccc1)C(F)(F)c1ccc2sc(C(=O)N[C@H]3C[C@@H]4C[C@@H]4C[C@H]4CC[C@@H](C(=O)N5CC(C(=O)N6CCOCC6)C5)N4C3=O)cc2c1` (stereo partly drawn) [Compound 194, isopropyl 2-(((difluoro(2-(((3S,6S,7aS, 8aR,9aR)-3-(3-(morpholine-4-carbonyl)azetidine-1-carbonyl)-5-oxodecahydro-1H-cyclopropa[d]pyrrolo[1,2-a]azocin-6-yl)carbamoyl)benzo[b]thiophen-5-yl)methyl) (phenoxy)phosphoryl)oxy) acetate] is higher in IC50: under 100 nM for the first, 100 to 1000 nM for the second. The first is the more potent here.

Compared with `CCCOC(=O)[C@H](C)NP(=O)(Cc1ccc2sc(C(=O)N[C@H]3C[C@H]4C[C@H]4C[C@H]4CC[C@@H](C(=O)N[C@H]5CN(c6cccnc6)C[C@@H]5F)N4C3=O)cc2c1)Oc1ccccc1` (stereo partly drawn) [Compound 269, propyl(((2-(((3S,6S,7aR,8aS,9aR)-3-(((3S,4S)-4-fluoro-1-(pyridin-3-yl)pyrrolidin-3-yl)carbamoyl)-5-oxodecahydro-1H-cyclopropa[d]pyrrolo[1,2-a]azocin-6-yl)carbamoyl)benzo[b]thiophen-5-yl)methyl)(phenoxy)phosphoryl)-L-alaniante], `CC(C)OC(=O)[C@H](Cc1ccccc1)NP(=O)(Cc1ccc2sc(C(=O)N[C@H]3C[C@@H]4C[C@@H]4C[C@H]4CC[C@@H](C(=O)N5CC(C(=O)N6CCOCC6)C5)N4C3=O)cc2c1)Oc1ccccc1` (stereo partly drawn) [Compound 134, isopropyl (((2-(((3S,6S,7aS, 8aR,9aR)-3-(3-(morpholine-4-carbonyl)azetidine-1-carbonyl)-5-oxodecahydro-1H-cyclopropa[d]pyrrolo[1,2-a]azocin-6-yl)carbamoyl)benzo[b]thiophen-5-yl)methyl) (phenoxy)phosphoryl)-L-phenyl-alaninate] is higher in IC50: under 100 nM for the first, 100 to 1000 nM for the second. The first is the more potent here.

`CCCOC(=O)[C@H](C)N[P@@](=O)(Oc1ccccc1)[C@@H](F)c1ccc2sc(C(=O)N[C@H]3C[C@@H]4C[C@@H]4C[C@H]4CC[C@@H](C(=O)N5C[C@@H](c6cnccc6N(C)C)CC56CC6)N4C3=O)cc2c1` (single isomer, unassigned) [Compound 432] and `CCCOC(=O)[C@H](C)NP(=O)(Oc1ccccc1)C(F)c1ccc2sc(C(=O)N[C@H]3C[C@@H]4C[C@@H]4C[C@H]4CC[C@@H](C(=O)N5CC(c6cc(C)no6)C5)N4C3=O)cc2c1` (stereo partly drawn) [Compound 361, propyl ((fluoro(2-(((3S,6S,7aS,8aR,9aR)-3-(3-(3-methylisoxazol-5-yl)azetidine-1-carbonyl)-5-oxodecahydro-1H-cyclopropa[d]pyrrolo[1,2-a]azocin-6-yl)carbamoyl)benzo[b]thiophen-5-yl)methyl)(phenoxy)phosphoryl)-L-alaninate] cannot be ordered by IC50: under 100 nM for the first, under 100 nM for the second.

`CCCOC(=O)[C@H](C)NP(=O)(Cc1ccc2sc(C(=O)N[C@H]3C[C@@H]4C[C@@H]4C[C@H]4CC[C@@H](C(=O)N5CC(C(=O)N6CCOCC6)C5)N4C3=O)cc2c1)Oc1ccccc1` (stereo partly drawn) [Compound 217, propyl (((2-(((3S,6S,7aS, 8aR,9aR)-3-(3-(morpholine-4-carbonyl)azetidine-1-carbonyl)-5-oxodecahydro-1H-cyclopropa[d]pyrrolo[1,2-a]azocin-6-yl)carbamoyl)benzo[b]thiophen-5-yl)methyl) (phenoxy)phosphoryl)-L-alaninate] and `CCCOC(=O)[C@H](C)NP(=O)(Oc1ccccc1)C(F)c1ccc2sc(C(=O)N[C@H]3C[C@@H]4C[C@@H]4C[C@H]4CC[C@@H](C(=O)N5CC(CS(C)(=O)=O)C5)N4C3=O)cc2c1` (stereo partly drawn) [Compound 363, propyl ((fluoro(2-(((3S,6S,7aS,8aR,9aR)-3-(3-((methylsulfonyl)methyl)azetidine-1-carbonyl)-5-oxodecahydro-1H-cyclopropa[d]pyrrolo[1,2-a]azocin-6-yl)carbamoyl)benzo[b]thiophen-5-yl)methyl)(phenoxy)phosphoryl)-L-alaninate] fall in the same range of IC50: 100 to 1000 nM for the first, 100 to 1000 nM for the second.

“propyl(((2-(((3S,6S,7aS,8aR,9aR)-3-((1R,5R)-2-acetyl-2,6-diazabicyclo[3.2.0]heptane-6-carbonyl)-5-oxodecahydro-1H-cyclopropa[d]pyrrolo[1,2-a]azocin-6-yl)carbamoyl)benzo[b]thiophen-5-yl)fluoromethyl)(phenoxy)phosphoryl)-L-alaninate [Compound 292]” and `CCCOC(=O)[C@H](C)NP(=O)(Oc1ccccc1)C(F)c1ccc2sc(C(=O)N[C@H]3C[C@H]4C[C@H]4C[C@H]4CC[C@@H](C(=O)N5CC(c6cnccc6F)C5)N4C3=O)cc2c1` (stereo partly drawn) [Compound 249, propyl ((fluoro(2-(((3S,6S,7aR,8aS,9aR)-3-(3-(4-fluoropyridin-3-yl)azetidine-1-carbonyl)-5-oxodecahydro-1H-cyclopropa[d]pyrrolo[1,2-a]azocin-6-yl)carbamoyl)benzo[b]thiophen-5-yl)methyl)(phenoxy)phosphoryl)-L-alaninate] cannot be ordered by IC50: under 100 nM for the first, under 100 nM for the second.

First: COC(=O)[C@H](C)NP(=O)(Cc1ccc2sc(C(=O)N[C@H]3C[C@@H]4C[C@@H]4C[C@H]4CC[C@@H](C(=O)N5CC(C(=O)N6CCOCC6)C5)N4C3=O)cc2c1)Oc1ccccc1 (stereo partly drawn) [Compound 216, methyl (((2-(((3S,6S,7aS, 8aR,9aR)-3-(3-(morpholine-4-carbonyl)azetidine-1-carbonyl)-5-oxodecahydro-1H-cyclopropa [d]pyrrolo[1,2-a]azocin-6-yl)carbamoyl)benzo[b]thiophen-5-yl)methyl) (phenoxy)phosphoryl)-L-alaninate]
Second: CC(C)(C)C(=O)SCCOP(=O)(OCCSC(=O)C(C)(C)C)C(F)(F)c1ccc2sc(C(=O)N[C@H]3C[C@@H]4C[C@@H]4C[C@H]4CC[C@@H](C(=O)N5CC(c6ccccn6)C5)N4C3=O)cc2c1 [Compound 314]
The IC50 of the first is higher: 100 to 1000 nM for the first, under 100 nM for the second.

With `CC(C)(C)C(=O)SCCOP(=O)(OCCSC(=O)C(C)(C)C)C(F)(F)c1ccc2ccc(C(=O)N[C@H]3C[C@@H]4C[C@@H]4C[C@H]4CC[C@@H](C(=O)N5CC(n6ccnc6)C5)N4C3=O)cc2c1` [Compound 221, S,S′-(((((7-(((3S,6S,7aS, 8aR,9aR)-3-(3-(1H-imidazol-1-yl)azetidine-1-carbonyl)-5-oxodecahydro-1H-cyclopropa[d]pyrrolo[1,2-a]azocin-6-yl)carbamoyl)naphthalen-2-yl)difluoromethyl)phosphoryl)bis(oxy))bis(ethane-2,1-diyl)) bis(2,2-dimethyl-propanethioate)] the IC50 was under 100 nM.
